# In publication PMC5951806, “Rapid labelling and covalent inhibition of intracellular native proteins using ligand-directed N-acyl-N-alkyl sulfonamide” (Nature Communications, 2018):
# “And” between values parts separate entries of the source, which are not always exact repeats. Equal entries are not always repeated.
# Key:
# Hsp90α = tested on: Hsp90α; design: method as in Supplementary References 1 and 2; conditions: reported for Hsp90α; ref Supplementary References 1 and 2; cited from earlier work
# endogenous Hsp90 = experiment: Hsp90 labelling with 11 in live HeLa cells in the presence of competitive Hsp90 inhibitors; conditions: 11 0.5 µM, 10 µM competitive inhibitor
# FKBP12 [1] = target: T1, FKBP12 (Homo sapiens, UniProt P62942); experiment: FKBP12 labelling in vitro (MALDI-TOF MS); assay type: biochemical; conditions: for FKBP12 labelling yield: 5 µM FKBP12, 10 µM reagent, pH 7.2, 37 °C
# T1 construct: GST (factor Xa site) (N, cleaved yes); made in house; host or cells: E. coli BL21 Star (DE3)
# From the text: Recombinant human FKBP12 was obtained as described in Supplementary Methods.
# FKBP12 [2] = target: T1, FKBP12; experiment: Kinetic analysis of FKBP12 labelling; assay type: biochemical; conditions: for kL, labelling rate constant: FKBP12 100 nM, HEPES pH 7.2, 37 °C, mean of triplicate ± s.d.; for Kd: from curve fitting of kapp vs reagent concentration, FKBP12, pH 7.2, 37 °C; for kinact/KI: pH 7.2, read-out: kL/Kd, second-order rate constant
# From the text: With the optimal NASA reactive group in hand, we next investigated the reaction kinetics of LD chemistry in in vitro protein labelling. The labelling reaction of LD chemistry follows Eq. (1):1 P+R⇆KdPR→kLP^* where P is a native (non-labelled) protein, R is the reagent, PR is the native protein–reagent complex, P* is the labelled-protein, Kd is the dissociation constant and kL is the rate constant for the labelling process. When [R] > [P], the pseudo-first-order reaction rate (kapp) is given as follows (see Supplementary Methods)[35]:2 P+PR/P0= exp-kappt 3 kapp=kL/1+Kd∕R […]
# The reaction time courses of FKBP12 labelling with various concentrations of 1 (200–2000 nM) were monitored by MALDI-TOF MS (Fig. 3b) and plotted to determine kapp using Eq. (2) (Fig. 3c). The values of kapp obtained in this manner were then plotted against the concentration of 1, which were well fitted by Eq. (3) (Fig. 3d). The labelling rate constant kL and the dissociation constant Kd of 1 were determined from curve fitting analysis to be (6.1 ± 0.6) × 10^−3 s^−1 and (2.1 ± 0.2) × 10^−7 M, respectively (the mean of triplicate ± standard deviation (s.d)) (Table 1).
# The residual ratio of nonlabelled protein ([P] + [PR]/[P]0) were determined by MALDI-TOF MS (matrix: CHCA). The pseudo-first order reaction rates (kapp) were obtained by fitting the data to Eq. (2). Kinetic parameters were obtained by fitting the data to Eq. (3).
# Kinetics of labelling reaction of LD chemistri es
# The labelling reaction of LD chemistr y follows as Supplementary Equation (2) 3: where P is a native (non- labelled) protein, R is a reagent, PR is a native protein- reagent complex, P* is a labelled-protein, Kd is a dissociation constant, and k L is a rate constant for labelling process. Hyd r o l ys i s (deactivation) of LD reagents during the labelling process is negligible owing to these stabilities in buffer s olution (Supplementary Figure 3, also see
# Supplementary R eferences 4–6) . The equations to be solved for the rate of labelling reaction […]
# The solution of the equat ions is
# According to the Supplementar y Equation (4), the k L and Kd values were obtained from the […]
# Preparation of purif ied FKB P12
# FKBP12 [3] = target: T1, FKBP12; experiment: FKBP12 labelling in HeLa cell lysate (western blotting); assay type: biochemical; conditions: 37 °C
# endogenous FKBP12 = target: T2, endogenous FKBP12 (Mus musculus, UniProt P26883); experiment: Chemical labelling of endogenous FKBP12 in C2C12 cells; assay type: cell-based; conditions: live C2C12 cells, 1 µM
# T2 construct: endogenous FKBP12 inside live cells was specifically modified with biotin; endogenous in cells; host or cells: C2C12 mouse myoblast cells (ATCC)
# Protocol: We then conducted intracellular endogenous FKBP12 labelling. Mouse myoblast C2C12 cells were incubated in culture medium containing 1 for 10–120 min at 37 °C. The cells were lysed and analysed by western blotting. […] Although the reaction rate was slightly slower than that of the in vitro experiments, probably because of the low membrane-permeability of 1, it should be noted that the labelled band was detectable after just 10 min incubation with 1, highlighting the rapid kinetics of LDNASA chemistry.
# Mouse myoblast C2C12 cells (ATCC) (2.0 × 10^5 cells) were cultured in Dulbecco’s modified Eagle’s medium (DMEM) supplemented with 10% foetal bovine serum (FBS, Gibco), penicillin (100 units/ml), streptomycin ([…]), and amphotericin B (250 ng/ml), and incubated in a 5% CO2 humidified chamber at 37 °C. The cells were then incubated in FBS-free DMEM containing reagent (1 μM) at 37 °C for 120 min. As control experiments, the labelling was conducted in the presence of Rapamycin (10 μM). For western blot analysis, after washing twice with PBS, the cells were lysed with RIPA buffer (pH 7.4, 25 mM Tris–HCl, 150 mM NaCl, 0.1% SDS, 1% Nonidet P-40, 0.25% deoxycholic acid) containing 1% protease inhibitor cocktail set III (Calbiochem). […] The samples were subjected to SDS-PAGE and electro-transferred onto an Immun-Blot PVDF membrane (Bio-Rad). The labelled FKBP12 was detected by chemiluminescence analysis using Streptavidin-HRP conjugate, rabbit anti-FKBP12 antibody (Abcam, ab2918, 1:1000) and anti-rabbit IgG-HRP conjugate (CST, #7074 S, 1:5000).
# Supplementary Figure 11 Quantification of labelling yields of endogenous FKBP12 in C2C12 cells. After C2C12 cells were incubated with LDNAS A 1 (1 µM) for 1 h, the cells were washed twi ce with PBS and l ys ed with R IPA buffer (pH 7.4, 25 mM Tris–HCl, 150 mM NaCl, 0.1% SDS, 1% Nonidet P-40, 0.25% deoxycholic acid) containing 1% protease inhibitor cocktail and rapamycin (10 µM) , which were aliquoted as input samples. All biotinylated proteins in the lysate were captured with Streptavidin agarose beads ( S Av -agarose, Thermo ). The flow through and elution fraction, as well as i nput samples, wer e subjected to Western blotting analysis using SAv- HRP and anti-FKBP12 antibody. Th e labelling yields were calculated by the following equation( Supplementar y Equation1) :
# LLLLLLLLLLLLLLLLLL yy LLLLLLyy ( %) = IILLII LLLLII LLIIyyFFFFFFFF12 ,IIIIIIIIII – IILLII LLLLII LLIIyyFFFFFFFF12,FFFFFFFF IIhrrFFIIrr h × 100 ( 1) IILLII LLLLII LLIIyyFFFFFFFF12 ,IIIIIIIIII
# Experiments were performed in triplicates (Ex.1–Ex.3), and the labelling yields of endogenous FKBP12 in C2C12 cells at 1 h with 1 were estimated to be 78 ± 2 % (mean ± standard deviation). Control, a sample without labelling; *, Nonspecific band derived from […]
# [4] = Evaluation of stabilities of LDNASA reagents (hydrolysis in aqueous buffer, HPLC); conditions: for fraction hydrolysed: after incubation for 48 h at 37 °C, 50 mM HEPES pH 7.2
# eDHFR = target: T3, eDHFR (Escherichia coli, UniProt P0ABQ4); experiment: Kinetic analysis of eDHFR labelling; assay type: biochemical; conditions: for kL, labelling rate constant: eDHFR 300 nM, HEPES 1 mM pH 7.2, 37 °C, mean of triplicate ± s.d.; for kinact/KI / Kd: eDHFR, pH 7.2, 37 °C; for kinact/KI: read-out: kL/Kd, second-order rate constant; for Kd: from curve fitting of kapp vs reagent concentration
# T3 construct: thioredoxin (N, cleaved yes); made in house; host or cells: E. coli Top10
# SKBR3 cells = experiment: Cell viability assay (WST-8); conditions: SKBR3, 3 h treatment, washing, further 69 h
# [5] = tested on: Hsp90-client proteins HER2, cRaf, Akt and pAkt; experiment: Western blotting of Hsp90 client proteins; conditions: SKBR3, 3 h treatment, washing, further 21 h
# [6] = target: N-terminal ATP binding domain of Hsp90α (Homo sapiens, UniProt P07900)
# [7] = target: N-terminal domain of Hsp90α (Homo sapiens, UniProt P07900); experiment: In vitro labelling of N-terminal domain of Hsp90α (MALDI-TOF MS); conditions: 6.4 µM protein, 10 µM 12, 37 °C; at Lys 58
# intracellular Hsp90 = conditions: SKBR3 cells, pre-treated 1–10 µM for 3 h, washed, then 11 0.5 µM
# FR = target: FR; design: method as in PMID 2552922; conditions: cited from earlier work
# T2 sequence (P26883 whole entry): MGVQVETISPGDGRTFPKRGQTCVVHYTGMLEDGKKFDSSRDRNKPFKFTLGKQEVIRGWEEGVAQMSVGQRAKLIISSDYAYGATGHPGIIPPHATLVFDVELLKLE
# T3 sequence (P0ABQ4 whole entry): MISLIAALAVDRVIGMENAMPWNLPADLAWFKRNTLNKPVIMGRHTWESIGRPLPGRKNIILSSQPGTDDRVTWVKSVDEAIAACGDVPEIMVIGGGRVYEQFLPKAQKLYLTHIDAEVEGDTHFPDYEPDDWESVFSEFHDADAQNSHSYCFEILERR
# T1 sequence (P62942 whole entry): as the sequence (P26883 whole entry) above, with T50M, I76T, S79P counted along it
smiles,measurement,setting,value
CC(C)NCCCn1c(Sc2cc(Cl)cc(Cl)c2)nc2c(N)ncnc21 [PU-WS13],IC50,Hsp90α,27000 nM
same,inhibition of Hsp90 labelling by 11,endogenous Hsp90,less potent inhibition
CCC(C)(C)C(=O)C(=O)N1CCCC[C@H]1C(=O)O[C@H](CCc1ccc(OC)c(OC)c1)c1cccc(OCC(=O)NCCCCCNC(=O)c2ccc(S(=O)(=O)N(CC#N)C(=O)CCCC[C@@H]3SCC4NC(=O)NC43)cc2)c1 (some centres unmarked) [compound 1],FKBP12 labelling yield,FKBP12 [1]; within 15 min,98%
same,"initial rate, fold faster than 2","FKBP12 [1]; FKBP12 labelling, 1 versus 2",49 fold
same,"initial rate, fold faster than 3","FKBP12 [1]; FKBP12 labelling, 1 versus 3",105 fold
same,FKBP12 labelling in the presence of rapamycin (competitive ligand),"FKBP12 [1]; in vitro, with rapamycin",completely abolished
same,"kL, labelling rate constant",FKBP12 [2],(6.1 ± 0.6) × 10^−3 s^−1
same,"kL, fold higher than that of LDT 5",FKBP12 [2]; FKBP12 labelling,635 fold
same,Kd,FKBP12 [2],210 nM
same,kinact/KI,FKBP12 [2],29000 M⁻¹ s⁻¹
same,ratio of unspecific to specific labelling,"FKBP12 [3]; HeLa cell lysate with 1 µM FKBP12, reagent 1–20 µM, 1 h",less than 0.15
same,incubation time after which the labelled band was detectable,endogenous FKBP12,10 min
same,labelling yield of endogenous FKBP12,"endogenous FKBP12; 60 min, 37 °C",78 ± 2% and 78%
same,labelling yield of endogenous FKBP12,endogenous FKBP12; 120 min,almost quantitative
same,half-life at 10 µM,"[4]; HEPES buffer, pH 7.2",43 h
CCC(C)(C)C(=O)C(=O)N1CCCC[C@H]1C(=O)O[C@H](CCc1ccc(OC)c(OC)c1)c1cccc(OCC(=O)NCCCCCNC(=O)c2ccc(S(=O)(=O)N(Cc3ccc([N+](=O)[O-])cc3)C(=O)CCCC[C@@H]3SCC4NC(=O)NC43)cc2)c1 (some centres unmarked) [compound 2],FKBP12 labelling yield,FKBP12 [1]; after a 2-h incubation,22%
same,fraction hydrolysed,[4],5%
CCC(C)(C)C(=O)C(=O)N1CCCC[C@H]1C(=O)O[C@H](CCc1ccc(OC)c(OC)c1)c1cccc(OCC(=O)NCCCCCNC(=O)c2ccc(S(=O)(=O)N(Cc3ccc([N+](=O)[O-])cc3[N+](=O)[O-])C(=O)CCCC[C@@H]3SCC4NC(=O)NC43)cc2)c1 (some centres unmarked) [compound 3],FKBP12 labelling yield,FKBP12 [1]; after a 2-h incubation,17%
same,fraction hydrolysed,[4],5%
"CCC(C)(C)C(=O)C(=O)N1CCCCC1C(=O)OC(CCc1ccc(OC)c(OC)c1)c1cccc(OCC(=O)N2CCN(C(=O)c3cccc(S(=O)(=O)OCCOCCOCCNC(=O)CCCCC4SCC5NC(=O)NC54)c3)CC2)c1 (centres unmarked) [compound 5, reference compound]","kL, labelling rate constant",FKBP12 [2],(9.6 ± 0.2) × 10^−6 s^−1
same,Kd,FKBP12 [2],210 nM
same,kinact/KI,FKBP12 [2],45 ± 6 M⁻¹ s⁻¹
same,endogenous FKBP12 labelling,endogenous FKBP12; <120 min,failed to label FKBP12
CCN(CC)c1ccc2cc(C(=O)NCCOCCOC(=O)n3cnc(CC(=O)NCCCCCNC(=O)CCCCOc4c(OC)cc(Cc5cnc(N)nc5N)cc4OC)c3)c(=O)oc2c1 [compound 6],"kL, labelling rate constant",eDHFR,(5.8 ± 0.1) × 10^−6 s^−1
same,kinact/KI,eDHFR,11 ± 1 M⁻¹ s⁻¹
same,Kd,eDHFR,550 nM
CCN(CC)c1ccc2cc(C(=O)Oc3c(Br)cc(C(=O)NCCCCCNC(=O)CCCCOc4c(OC)cc(Cc5cnc(N)nc5N)cc4OC)cc3Br)c(=O)oc2c1 [compound 7],"kL, labelling rate constant",eDHFR,(3.4 ± 0.3) × 10^−4 s^−1
same,kinact/KI,eDHFR,590 M⁻¹ s⁻¹
same,Kd,eDHFR,580 nM
COc1cc(C(=O)C(=O)N2CCCCC2C(=O)NCCOCCOCC(=O)NCCCCCNC(=O)c2ccc(S(=O)(=O)N(CC#N)C(=O)CCCCC3SCC4NC(=O)NC43)cc2)cc(OC)c1OC (centres unmarked) [compound 8],"kL, labelling rate constant",FKBP12 [2],(7.6 ± 1.7) × 10^−3 s^−1
same,"kL/Kd, fold less than 1",FKBP12 [2]; FKBP12 labelling,392 fold
same,Kd,FKBP12 [2],100000 nM
same,kinact/KI,FKBP12 [2],74 ± 19 M⁻¹ s⁻¹
same,concentration required to obtain the same signal intensity as biotinylated FKBP12 labelled by 1,"FKBP12 [3]; HeLa cell lysate with 1 µM FKBP12, 1 h, 1 at 1 µM",20 µM
N#CCN(C(=O)CCCC(=O)NCCCn1c(Sc2cc3c(cc2I)OCO3)nc2c(N)ncnc21)S(=O)(=O)c1ccccc1 [compound 12],cytotoxicity / growth inhibitory effect after washout,SKBR3 cells,clearly showed a growth inhibitory effect
same,Hsp90-client protein levels after washout,[5],decrease in Hsp90-client proteins was also observed
same,Ki,[6],62 nM
same,kinact/KI,"[6]; pH 7.2, read-out: second-order rate constant of the covalent inhibition",29000 M⁻¹ s⁻¹
same,covalent attachment of the PU-H71 ligand to Hsp90 N-terminal domain,[7],quantitative and single covalent attachment
same,blocking of fluorescent labelling of Hsp90 by 11 after washout,intracellular Hsp90,strongly inhibited the fluorescent labelling
CN(Cc1cnc2nc(N)nc(N)c2n1)c1ccc(C(=O)N[C@@H](CCC(=O)O)C(=O)O)cc1 [methotrexate],Kd,FR,~200 nM
